Assay results from patent US6291683A, “N-arloxyethyl-alkylamines for the treatment of depression” (American Home Products Corp, priority 2000, dated 2001).
Like-named read-outs stand apart in the source and are kept apart here.

What was measured:
serotonin transporter = target: T1, serotonin transporter (Rattus norvegicus, UniProt P31652); test: affinity for the serotonin transporter ([3H]-paroxetine binding, rat frontal cortical membranes); set-up: species or system rat (male Sprague-Dawley); settings: for inhibition at 0.1 µM: @ .1 μM, read-out: ST (% Inhib. @ .1 μM)
T1 construct: frontal cortical membranes prepared from male Sprague-Dawley rats; from tissue; host or cells: frontal cortex membranes, male Sprague-Dawley rats
Description: Briefly, frontal cortical membranes prepared from male Sprague-Dawley rats were incubated with ^3 H-paroxetine (0.1 nM) for 60 min at 25° C. […] All reactions are terminated by the addition of ice cold Tris buffer followed by rapid filtration using a Tom Tech filtration device to separate bound from free ^3 H-paroxetine.

5-HT1A cloned receptor = target: T2, 5-HT1A cloned receptor (Homo sapiens, UniProt P08908); test: [35S]-GTPγS binding assay, 5-HT1A cloned receptor membrane fragments; format: biochemical; settings: maximum agonist response defined by excess 8-OH-DPAT
T2 construct: expressed in transfected cells
T2 sequence (P08908 1-422): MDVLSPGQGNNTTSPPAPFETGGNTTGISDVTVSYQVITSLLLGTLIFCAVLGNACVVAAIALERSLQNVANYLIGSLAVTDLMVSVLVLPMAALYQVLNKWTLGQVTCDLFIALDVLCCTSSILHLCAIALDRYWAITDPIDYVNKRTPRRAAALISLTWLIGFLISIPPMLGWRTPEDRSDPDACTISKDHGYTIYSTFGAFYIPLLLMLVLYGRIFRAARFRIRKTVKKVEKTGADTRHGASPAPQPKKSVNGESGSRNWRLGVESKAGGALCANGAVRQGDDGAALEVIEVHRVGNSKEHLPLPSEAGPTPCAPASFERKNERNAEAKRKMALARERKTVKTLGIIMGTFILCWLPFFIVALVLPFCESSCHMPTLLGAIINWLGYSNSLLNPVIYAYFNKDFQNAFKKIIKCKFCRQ

human 5-HT1A receptor = target: T3, human 5-HT1A receptor (Homo sapiens, UniProt P08908); test: 5-HT1A receptor binding ([3H]8-OH-DPAT displacement, membranes of 5-HT1A.CHO cells)
T3 sequence (P08908 1-422): T2 sequence (P08908 1-422)
Description: Cells were maintained in DMEN supplemented with 10% fetal calf serum, non-essential amino acids and penicillin/ streptomycin.
Cells were grown to 95-100% confluency as a monolayer before membranes were harvested for binding studies. Cells were gently scraped from the culture plates, transferred to centrifuge tubes, and washed twice by centrifugation (2000 rpm for 10 min., 4° C.) in buffer (50 mM Tris; pH 7.5). The resulting pellets were aliquoted and placed at -80° C. On the day of assay, the cells were thawed on ice, and resuspended in buffer. Studies were conducted using [^3 H]8-OH-DPAT as the radioligand. The binding assay was performed in 96 well microtiter plates in a final total volume of 250 μL of buffer.

[1] = [3H]-paroxetine 0.1 nM, 60 min, 25° C
[2] = read-out: 5-HT1A (Ki), [3H]8-OH-DPAT 1.5 nM, 30 min, room temperature, CHO cell membranes

T1 sequence (P31652 whole entry): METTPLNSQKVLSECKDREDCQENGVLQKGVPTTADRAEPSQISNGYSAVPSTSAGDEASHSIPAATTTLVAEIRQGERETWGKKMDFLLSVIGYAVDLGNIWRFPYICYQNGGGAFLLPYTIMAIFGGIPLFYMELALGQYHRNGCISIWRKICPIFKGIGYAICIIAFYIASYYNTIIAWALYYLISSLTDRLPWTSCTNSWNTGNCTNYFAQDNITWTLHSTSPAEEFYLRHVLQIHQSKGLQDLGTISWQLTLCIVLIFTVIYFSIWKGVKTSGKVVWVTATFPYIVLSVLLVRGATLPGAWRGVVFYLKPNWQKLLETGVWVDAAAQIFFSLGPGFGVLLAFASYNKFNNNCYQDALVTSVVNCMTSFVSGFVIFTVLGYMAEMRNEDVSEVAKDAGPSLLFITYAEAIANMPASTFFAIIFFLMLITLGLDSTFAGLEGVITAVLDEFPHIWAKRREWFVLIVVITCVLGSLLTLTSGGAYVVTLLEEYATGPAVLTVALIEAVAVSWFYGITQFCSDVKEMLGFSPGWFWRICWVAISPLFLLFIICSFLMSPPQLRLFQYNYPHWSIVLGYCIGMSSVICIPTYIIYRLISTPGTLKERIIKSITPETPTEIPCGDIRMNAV

Compound | Ki (serotonin transporter) [nM] | Emax (5-HT1A cloned receptor) [%] | inhibition at 0.1 µM (serotonin transporter; [1]) [%] | Ki (human 5-HT1A receptor) [nM] | Ki (human 5-HT1A receptor; [2]) [nM] | other results
c1cc(OCCNCCc2c[nH]c3ccccc23)c2c(c1)OCCO2 [Example 6, [2-(2,3-Dihydrobenzo[1,4]dioxin-5-yloxy)-ethyl]-[2-(1H-indol-3-yl)-ethyl]-amine] | 12 | 100 |  |  |  | 
Fc1ccc2[nH]cc(CCCNCCOc3cccc4c3CCC4)c2c1 [Example 13a, [3-(5-Fluoro-1H-indol-3-yl)-propyl]-[2-(indan-4-yloxy)-ethyl]-amine] |  |  | 71 | 76.9 |  | 
c1ccc(OCCNCCCc2c[nH]c3ccccc23)cc1 [Example 13d, [3-(1H-indol-3-yl)-propyl]-[2-phenoxy-ethyl]-amine] |  |  | 26 |  |  | 
Fc1ccc2[nH]cc(CCCNCCOc3ccc4c(c3)CCC4)c2c1 [Example 14] | 56 |  |  | 158 |  | 
COc1ccccc1OC(C)CNCCCc1c[nH]c2ccc(F)cc12 (stereo not drawn) [Example 17, [3-(5-Fluoro-1H-indol-3-yl)-propyl]-[2-(2-methoxy-phenoxy)propyl]amine] |  | 97.5 |  |  | 14.5 | Ki (serotonin transporter; read-out: ST (Ki), [3H]-paroxetine 0.1 nM, 60 min, 25° C, Ki converted from IC50 (Cheng and Prusoff)): 16 nM
[3-(5-Fluoro-1H-indol-3-yl)-propyl]-[2-(2-methoxy-phenoxy)-2-phenyl-ethyl]- amine [Example 16] |  |  |  |  | 43.9 | Ki (serotonin transporter; [3H]-paroxetine 0.1 nM, 60 min, 25° C, Ki converted from IC50 (Cheng and Prusoff), read-out: ST (Ki)): 21 nM
